Consider two compounds from patent US20110033376A1, “Treatment of Melanoma” (priority 2007, published 2011).

Data set [1] concerns A375 melanoma cells. The experiment in a line: Apo-ONE Homogeneous Caspase-3/7 assay (induction of apoptosis). The settings on record: A375, 24 hours incubation. It is filed as cell-based, human. Here is the method: (§1) 3 human melanoma cell lines (A375, G-361, WM266-4) were maintained in RPMI 1640 culture medium (Sigma, UK) containing 10% (v/v) heat inactivated foetal bovine serum (Sigma, UK) and 2 mM […] at 37° C. in 5% humidified CO2. Cells were harvested, washed, re-suspended into growth medium and counted (Beckman-Coulter Vi-CELL XR). Cells were plated onto the middle 240 wells of 384 tissue culture plates at 1.6×10^5 to 2.4×10^5 cells/ml in 12.5 μl/well aliquots. 50 μl of growth media was aliquoted into the outer wells. 2 plates were prepared per cell line. Plates were incubated overnight at 37° C., in 5% humidified CO2.
(§2) Dexanabinol was prepared in growth medium at 2 times the final assay concentration at 125, 31.3, 7.81, 2.00, 0.49, 0.12, 0.031 and 0.008 μM (DMSO concentration was kept constant across the dilution range at 0.5%).
(§3) Cisplatin was used as a positive control. The final assays concentrations were 10, 2.5, 0.63, 0.156, 0.039, 0.010, 0.002 and 0.0006 μg/ml. […] 12.5 μl of growth media was added to the media control wells. The plates were incubated for 24 hours at 37° C., in 5% humidified CO2.
(§4) Caspase 3/7 levels were assessed by Apo-ONE© Homogeneous Caspase-3/7 assay kit. Fluorescence was measured using a FlexStation© II^384 plate reader at 1, 2, 3 and 4 hours after addition of the caspase substrate. The 4 hour readings were used for analysis.

For data set [2], the system named is G-361 melanoma cells. The data set is described as above. In kind it is cell-based, human. The settings on record: G-361, 24 hours incubation. Here is the method:
as §1, §2, §3, §4

For data set [3], the system named is WM266-4 melanoma cells. Described as above. The settings on record: WM266-4, 24 hours incubation; for EC50: caspase 3/7. In kind it is cell-based, human. How it is done: as §1, §2, §3, §4
Data set [4] relates to A375 melanoma cells. Nature of the data set: CellTiter-Blue cell viability assay. The settings on record: A375, 24 hours incubation; for IC50: CellTiter-Blue. It is filed as cell-based, human. Here is the method:
as §1, §2, §3
(§5) The cell viability assay was performed in parallel on the same plate for each line using CellTiter-Blue© (Promega) reagent. Briefly, 25 μl of CellTiter-Blue© (Promega) reagent was added to each well. The plates were shaken for 1 minute at 500 rpm and then incubated at 37° C., 5% CO2 for 4 hours.
(In general: The colour change of resazurin is a common sign of viable cells or microbes.)

For data set [5], the system named is G-361 melanoma cells. Nature of the data set: CellTiter-Blue cell viability assay. In kind it is cell-based, human. The settings on record: G-361, 24 hours incubation; for IC50: CellTiter-Blue. Here is the method:
as §1, §2, §3, §5

Data set [6] deals with WM266-4 melanoma cells. Nature of the data set: CellTiter-Blue cell viability assay. The settings on record: WM266-4, 24 hours incubation; for IC50: CellTiter-Blue. It is filed as cell-based, human. How it is done: as §1, §2, §3, §5
Data set [7] concerns A375 melanoma cells. Nature of the data set: Sulforhodamine B (SRB) growth inhibition assay. It is filed as cell-based, human. Here is the method: (§6) The ability of dexanabinol to inhibit melanoma cell growth was also studied in 3 melanoma cell lines (A375, UACC62, Malme-3M) using the Sulforhodamine B (SRB) assay.
(§7) Sterile solutions of the final concentrations of dexanabinol were prepared (0.001 μM to 100 μM in 0.5% DMSO).
(§8) The cells were incubated with drug concentrations in 0.5% DMSO (100 μl total volume per well) at 37° C. in 5% CO2 for 5 days. Control wells contained cells plus 0.5% DMSO plus medium.
(§9) The SRB growth inhibition assay was conducted over 24 and 5 day exposure periods. Following exposure, the cells were fixed, stained with SRB and read on a SpectorMax® 250 microplate spectrophotometer system plate reader.

A further data set relates to UACC62 melanoma cells. The experiment in a line: Sulforhodamine B (SRB) growth inhibition assay. In kind it is cell-based, human. The settings on record: UACC62, 5-day exposure. Here is the method:
as §6, §7, §8, §9

Another data set concerns Malme-3M melanoma cells. Nature of the data set: Sulforhodamine B (SRB) growth inhibition assay. In kind it is cell-based. The settings on record: Homo sapiens, 120 h, 5-day exposure. How it is done:
as §6, §7, §8, §9

Data set [8] concerns A375 melanoma cells. The experiment in a line: Clonogenic assay, time-course effect on cell proliferation. It is filed as cell-based, human. The settings on record: A375, 1 hour vs 24 hours exposure. How it is done: The time-course effect of dexanabinol on cell proliferation in one melanoma cell line, A375, was examined using the clonogenic assay method.
A375 cells were harvested from the growing cell culture and counted. Cells were diluted to 1.0×10^5/ml and seeded 2 ml/well to 6 well plates.
The cells were incubated overnight at 37° C. in humidified incubator 95% air+5% CO2.
The cells were treated with dexanabinol at 4 doses up to 20 μM at 3 exposure periods (1 hour, 6 hours and 24 hours).
After each exposure period, the cells were harvested from the wells by washing twice with PBS then adding 0.2 ml of single strength trypsin to each well and incubating at 37° C. until the cells detached. Cell suspensions were counted at 1/10 dilution and then diluted to 1/10, 1/100, 1/1000.
10 cm dishes (containing 7 ml fresh medium) were seeded with 3 different cell densities for dexanabinol treatment and control treatment. When colonies of suitable size formed in the control dishes, dishes were fixed, stained and counted.
Percentage survival in the dexanabinol treated A375 cells was calculated using the following equation: […]

The nature of data set [9]: Preliminary pharmacokinetic (PK) and maximum tolerated dose (MTD) study. It is filed as in vivo, CD1 A375 tumour-bearing mice. The settings on record: CD1 mice. How it is done:
(§10) Having established that dexanabinol inhibited melanoma cell proliferation in vitro, we then sought to establish whether the compound was active in vivo. A preliminary pharmacokinetic (PK) and maximum tolerated dose (MTD) study was carried out to determine whether therapeutically effective dose levels of dexanabinol could be achieved in CD1 A375 tumour-bearing mice. […] On the basis of this, a single-dose efficacy study was undertaken. Dexanabinol was diluted in a vehicle of 10% Cremophor/Ethanol (1:1 v/v) in saline. Control mice received vehicle alone.

Data set [10] deals with A375 human tumour xenograft. The experiment in a line: Single-dose efficacy study, human melanoma cell xenograft growth. The settings on record: single dose 100 mg/kg i.v., CD1 nude mice bearing A375 xenograft. In kind it is in vivo. How it is done:
as §10
10 mice received 100 mg/kg i.v. dexanabinol. 10 mice received Vehicle (10 ml/kg) Mice were implanted with 1×10^7 A375 human melanoma cells, in 50 μl of medium, on the flank. Once tumours were palpable (approx 5 mm×5 mm) 20 mice were treated with either dexanabinol or vehicle (as outlined above). […] Tumour size was measured 3 times a week after treatment. The treatment lasted 4 weeks
For orientation: Xenograft models place foreign cells or tissue in a host animal.

The subject of data set [11] is 3 melanoma cell lines (A375, G-361, WM266-4). The experiment in a line: CellTiter-Blue cytotoxic response, summary over 3 melanoma cell lines. In kind it is cell-based. The settings on record: Homo sapiens, 24 h, read-out: IC50 of cytotoxic response. How it is done: Cells were harvested, washed, re-suspended into growth medium and counted (Beckman-Coulter Vi-CELL XR). […] 50 μl of growth media was aliquoted into the outer wells. 2 plates were prepared per cell line. Plates were incubated overnight at 37° C., in 5% humidified CO2.
The final assays concentrations were 10, 2.5, 0.63, 0.156, 0.039, 0.010, 0.002 and 0.0006 μg/ml. […] 12.5 μl of growth media was added to the media control wells. The plates were incubated for 24 hours at 37° C., in 5% humidified CO2.
The plates were shaken for 1 minute at 500 rpm and then incubated at 37° C., 5% CO2 for 4 hours.

The subject of data set [12] is human melanoma cell lines (A375, G-361, WM266-4). The experiment in a line: Caspase 3/7 apoptosis induction, summary over melanoma cell lines. In kind it is cell-based. How it is done:
as §1, §2, §3, §4

Data set [13] deals with all tested human melanoma cell lines. The experiment in a line: In vitro cell proliferation assays, summary over all tested lines. It is filed as cell-based. How it is done: as §5, §6, §9

Turning to `N.N.[Cl][Pt][Cl]` [Cisplatin], the “Rank of apoptosis induction” value in the data set on A375 melanoma cells [1] was “** (moderate apoptosis induction and decrease in proliferation (35-70%))”; with G-361 melanoma cells [2] it was “** (moderate apoptosis induction and decrease in proliferation (35-70%))”; with WM266-4 melanoma cells [3] it was “*** (good apoptosis induction and decrease in proliferation (>70%))”. Also, the values for the concentration for a half-maximal effect (EC50) in the data set on A375 melanoma cells [1] (caspase 3/7), in the data set with G-361 melanoma cells [2] (caspase 3/7) and with WM266-4 melanoma cells [3] were 5.67 µM, 33.3 to 100 µM and 33.3 to 100 µM, respectively. Besides, the “Rank of decrease in proliferation (viability)” value with A375 melanoma cells [4] is “** (moderate apoptosis induction and decrease in proliferation (35-70%))”; in the data set on G-361 melanoma cells [5], “** (moderate apoptosis induction and decrease in proliferation (35-70%))”; in the data set with WM266-4 melanoma cells [6], “* (weak apoptosis induction and decrease in proliferation (<35%))”. Also, the IC50 in the data set on A375 melanoma cells [4] turned out to be 21.8 µM; in the data set on G-361 melanoma cells [5], 18 µM; with WM266-4 melanoma cells [6], 62 µM.
As to `CCCCCCC(C)(C)c1cc(O)c2c(c1)OC(C)(C)[C@H]1CC=C(CO)C[C@H]21` [Dexanabinol, 1,1 dimethyl heptyl-(3S,4S)-7-hydroxy-Δ^6-tetrahydrocannabinol], the “Rank of apoptosis induction” value was “ND*** (good apoptosis induction and decrease in proliferation (>70%))” in the data set on A375 melanoma cells [1]; “ND* (weak apoptosis induction and decrease in proliferation (<35%))” in the data set on G-361 melanoma cells [2]; “*** (good apoptosis induction and decrease in proliferation (>70%))” in the data set with WM266-4 melanoma cells [3]. In the data set with WM266-4 melanoma cells [3] (Homo sapiens, WM 266-4), this compound came in with a concentration for a half-maximal effect (EC50) of 13 µM. The “Rank of decrease in proliferation (viability)” value with A375 melanoma cells [4] was “** (moderate apoptosis induction and decrease in proliferation (35-70%))”; in the data set with G-361 melanoma cells [5], “*** (good apoptosis induction and decrease in proliferation (>70%))”; in the data set with WM266-4 melanoma cells [6] it was “** (moderate apoptosis induction and decrease in proliferation (35-70%))”. For the same compound, the concentration for half-maximal inhibition (IC50) in the data set on A375 melanoma cells [4] (Homo sapiens, A-375) was 19.2 µM; in the data set with G-361 melanoma cells [5] (Homo sapiens), 11 µM; with WM266-4 melanoma cells [6] (Homo sapiens, WM 266-4), 20.9 µM; in data set [11], 10 to 21 µM. The GI50 with A375 melanoma cells [7] (A375, 5-day exposure) was determined as 14.4 µM; in the data set with A375 melanoma cells [7] (Homo sapiens, A-375, 24 h, A375, 24-hour exposure), 14.3 µM; with A375 melanoma cells [7] (Homo sapiens, A-375, 120 h, A375, 5-day exposure), 16.2 µM; in the data set with UACC62 melanoma cells (Homo sapiens, UACC-62, 120 h) it was 18.5 µM; in the data set on UACC62 melanoma cells, 18.1 µM; in the data set on Malme-3M melanoma cells, 13.3 µM. The “Time dependence of cell killing” value in the data set on A375 melanoma cells [8] is “time-independent”. For the same compound, the Plasma concentration in [9] (at the MTD, 100 mg/kg i.v. single dose) stood at 10 µM. Further, in data set [9] (mouse, in vivo, iv, i.v. single dose), the maximal tolerated dose (MTD) is 100 mg/kg. Also, the “Effect on tumour xenograft growth” value in data set [10] is listed as “growth delaying effect”. In data set [12] (24 hours incubation, response dropped at the highest concentration), the “Concentration of peak response in apoptosis” value amounted to 2.5 µM. For the same compound, the “Mode of cell death” value in data set [12] (caspase 3/7) is reported as “induced apoptotic cell death in a caspase 3/7 dependent manner”. Moreover, the “Mean concentration at which profoundly cytotoxic” value in [13] (all tested human melanoma cell lines) is listed as about 14. In addition, the “Drug concentrations at which in vitro anti-tumour effects were observed” value in data set [13] (in vitro) lay in the range of 10 to 20 µM.

A word on the EC50: it is the midpoint of the concentration-response curve. A lower EC50 goes with a more potent agent. By IC50 is commonly meant the concentration needed to halve the response being measured. For orientation: GI50 means the concentration that inhibits growth by half. For orientation: MTD means the largest dose that counted as tolerated. High values mean better tolerability, low ones poorer tolerability.
